The source of these data is patent US9732053B2, “1-[2-(2,4-dimethylphenylsulfanyl) phenyl]piperazine acetate in crystalline form” (LEK PHARMACEUTICALS D.D., priority 2013, dated 2017).

For data set [1] the following is noted: room temperature; data from WO 2007/144005 A1 and WO 2010/121621 A1; cited from earlier work.
Data set [2] in a line: Slurry experiments in n-heptane for thermodynamic stability (Examples 12-13). To be noted: room temperature. Type of data set: physicochemical. The protocol:
Slurry experiments were performed to determine the order of the thermodynamic stability of the solid state forms at room temperature (see also Examples 12-13 of the present invention).
35 mg of vortioxetine acetate form Ill was suspended in 0.5 mL n-heptane and stirred with a magnetic stirrer at room temperature for 4 weeks.
25 mg of vortioxetine acetate form I was suspended in 0.5 mL n-heptane and stirred with a magnetic stirrer at room temperature for 24 h.

A short description of data set [3]: Gravimetric moisture sorption/desorption cycle. In kind it is physicochemical. To be noted: for Δm (0-80% RH), water absorption: 25° C.; for Structural changes during moisture sorption: sorption desorption cycle, XRPD. The protocol:
Moisture sorption isotherms were recorded with an SPSx-1μ moisture sorption analyzer (ProUmid, Ulm). The measurement cycle was started at 3% relative humidity (RH). Then the RH was increased from 5% to 75%, decreased to 0% and increased to 80% in 5% steps. Finally the RH was decreased to 0% in 10% steps and equilibrated in a last step to 35%. The time per step was set to a minimum of 1 hour and a maximum of 3 hours. If an equilibrium condition with a constant mass of ±0.01% within 1 hour was reached before the maximum time for all examined samples, the sequential humidity step was applied before the maximum time of 3 hours. If no equilibrium was achieved, the consecutive humidity step was applied after the maximum time of 3 hours. The temperature was 25±0.1° C. The final water content was determined by coulometric Karl Fischer titration.
Coulometric Karl Fischer titration was performed with a Metrohm 831 KF Coulometer equipped with a double-platinum detecting electrode, a Metrohm 832 KF Thermoprep oven (130° C.) and Hydranal Coulomat AK as Karl Fischer reagent.

A short description of data set [4]: Stress tests at increased relative humidity with XRPD analysis (Examples 10-11). In kind it is physicochemical. The protocol: X-ray powder diffractograms (XRPD) were obtained with an X'Pert PRO diffractometer (PANalytical, Almelo, The Netherlands) equipped with a theta/theta coupled goniometer in transmission geometry, programmable XYZ stage with well plate holder, Cu-Kα1,2 radiation source (wavelength 0.15419 nm) and a solid state PIX'cel detector. The diffractograms were recorded at a tube voltage of 45 kV, tube current of 40 mA applying a step size of 0.013° 2-theta with 40 s per step (255 channels) in the angular range of 2° to 40° 2-theta at ambient conditions. A typical precision of the 2-theta values is in the range of about ±0.2° 2-theta. Thus a diffraction peak that appears at 5.0° 2-theta can appear between 4.8 and 5.2° 2-theta on most X-ray diffractometers under standard conditions.
42 mg of vortioxetine acetate form Ill was stressed at 40° C./75% RH for 4 weeks.
34 mg of vortioxetine acetate form Ill were stressed at RT/97% RH for 4 weeks.

Data set [5] can be described thus: Water solubility determination of vortioxetine acetate form III (Example 9). In kind it is physicochemical. The protocol: 100 μL water was added to 100.34 mg of vortioxetine acetate form Ill. The mixture was vigorously shaken for 2 min and placed at 25° C. for 15 min. The solid was not completely dissolved, therefore a further 100 μL of water was added and the dissolving procedure repeated. […] According to […]

The mark [6] stands for this setting: listed as acetate form I, acetate.
Where [7] appears, read: listed as acetate form III, acetate.

As usually defined, the solubility is the concentration that dissolves in the medium under given conditions.

Where a name gives a salt, the structure may show the parent alone.

Turning to `CC(O)C(=O)O.Cc1ccc(Sc2ccccc2N2CCNCC2)c(C)c1` [DL-lactate form β], the Aqueous solubility in data set [1] is listed as 8 mg base/mL.
As for `Br.Cc1ccc(Sc2ccccc2N2CCNCC2)c(C)c1` [HBr form α], the Aqueous solubility in data set [1] is reported as 2 mg base/mL.
`Br.Cc1ccc(Sc2ccccc2N2CCNCC2)c(C)c1` [HBr form β]: the Aqueous solubility in data set [1] is listed as 1.2 mg base/mL.
For the molecule `Cc1ccc(Sc2ccccc2N2CCNCC2)c(C)c1` [HCl MH], the Aqueous solubility in data set [1] was 2 mg base/mL.
In the case of `Cc1ccc(Sc2ccccc2N2CCNCC2)c(C)c1.Cl` [HCl], in data set [1], the Aqueous solubility is 3 mg base/mL.
For the molecule `CC(O)C(=O)O.Cc1ccc(Sc2ccccc2N2CCNCC2)c(C)c1` [L-lactate form MH2], the Aqueous solubility in data set [1] is given as 26 mg base/mL.
Consider `Cc1ccc(Sc2ccccc2N2CCNCC2)c(C)c1` [free base, 1-[2-(2,4-Dimethylphenylsulfanyl)phenyl]piperazine], for which the Aqueous solubility in data set [1] was 0.1 mg base/mL.
Take `CC(=O)O.Cc1ccc(Sc2ccccc2N2CCNCC2)c(C)c1` [vortioxetine acetate form I, 1-[2-(2,4-dimethylphenylsulfanyl)phenyl]piperazine acetate]: the “Structural changes after slurry (XRPD)” value in data set [2] (stirred 24 h, acetate) was “transformed to form III”; in data set [2] (stirred 24 h, listed as Form I of vortioxetine acetate), “undergoes a transition to form III”. In addition, the “Δm (0-80% RH), water absorption” value in data set [3] (setting [6]) was “+2%”; in data set [3] (listed as form I, acetate), 2%. The “Structural changes during moisture sorption” value in data set [3] (setting [6]) is “partial decomposition to free base”; in data set [3] (listed as form I, acetate), “partial decomposition of the acetate salt to the free base”.
Turning to `CC(=O)O.Cc1ccc(Sc2ccccc2N2CCNCC2)c(C)c1` [vortioxetine acetate form III, 1-[2-(2,4-dimethylphenylsulfanyl)phenyl]piperazine acetate], the “Structural changes after stress (XRPD)” value in data set [4] (40° C./75% RH for 4 weeks) and in data set [4] (RT/97% RH for 4 weeks) was “no structural changes” in each case. Further, the “Aqueous solubility calculated as free base” value in data set [5] (25° C. / room temperature, converted from acetate salt by Equation 1) is given as 278 mg base/mL. Moreover, the solubility in data set [5] (thermodynamic from solid, 25° C., 100.34 mg dissolved in 300 μL, read-out: Solubility of the acetate salt in water) is 334 mg/mL. The “Structural changes after slurry (XRPD)” value is “does not undergo any transformation” in data set [2] (stirred 4 weeks, acetate) and “no structural changes” in data set [2] (stirred 4 weeks, listed as vortioxetine acetate form Ill). Further, in data set [3] (setting [7]), the “Δm (0-80% RH), water absorption” value was “+0.4%^”. Further, the “Hygroscopicity according to European Pharmacopoeia” value in data set [3] (gravimetric moisture sorption desorption curve, FIG. 6) was “only slightly hygroscopic”. Besides, the Water content result was “about 0.3%” in data set [3] (relative humidity of about 0%); “less than 0.7%” in data set [3] (relative humidity of about 80%, acetate); “about 0.7%” in data set [3] (relative humidity of about 80%, listed as form III of vortioxetine acetate, acetate). Further, the “Structural changes during moisture sorption” value in data set [3] (setting [7]) is “no changes from 0-97% RH”.
For the molecule fumarate, in data set [1], the Aqueous solubility is on record as 0.4 mg base/mL.
On to maleate, for which the Aqueous solubility entry in data set [1] is listed as “≈1 mg base/mL”.
As for phosphate, the Aqueous solubility result in data set [1] was “≈1 mg base/mL”.
